US20250129101A1, “Compound, Pharmaceutical Composition Comprising the Same and Method for Treating Cancer Using the Same” (NATIONAL TSING HUA UNIVERSITY, priority 2023, published 2025)

Columns and labels:
[1] = system: MDA-MB-231 R, MDA-MB-231 S, 4T1 S1, R4, and R8 cells; assay: Cell viability of indicated cell lines, DHTP or 7S9 for 72 hr; assay type: cell-based; settings: Homo sapiens, range over MDA-MB-231 R, read-out: cytotoxicity IC50 values
Description: (§1) The cancer cells were cultured in a 96-well plate at a confluence of 1000-2000 cells/well with indicated drugs for specific days. When the time was up, the culture medium in the plate was aspirated and replaced with a prepared CellTiter-Glo reagent/DMEM mixture (1:1 mix of CellTiter-Glo reagent and serum-supplemented DMEM). After incubation for 10 min, the luminescence (proportional to the number of living cells) was measured with an ELISA plate reader to determine the cell viability.

4T1 R4 cells = assay: Time-lapse imaging of mitotic progression, 4T1 R4 cells; assay type: cell-based, mouse; settings: 1 μM 7S9 and 400 nM paclitaxel
Description: To investigate the role of KIF2C in cell cycle progression, 4T1 cells were cultured in the 4-well chamber slide with about 50% confluence. The culture medium was replaced with a CO2-independent medium (Gibco) supplemented with 10% fetal bovine serum (Biological Industries) and 1% penicillin-streptomycin (Biowest). Then, each well of the chamber slide was treated with indicated drugs, such as DMSO, KIF2C inhibitors, or chemotherapy drugs. After that, the chamber slide was maintained in the microscope stage incubator with the supplement of humidified air with 5% CO2 at 37° C. Multiple-positional time-lapse imaging was performed using an automated Leica DM16000 inverted microscope equipped with HCX PL FL 20×/0.4 and EMCCD camera (Andor Luca R, Belfast, UK). Sequential differential interference contrast (DIC) images of cells obtained at indicated intervals were further analyzed using Metamorph software (Molecular Devices).

KIF2C = target: T1, KIF2C (Homo sapiens, UniProt Q99661); assay: In vitro microtubule depolymerization assay; assay type: biochemical; settings: 50 μM 7S9, recombinant KIF2C and ATP, 30 min
T1 construct: KIF2C (216-598 a.a.); 6xHis (C); made in house; host or cells: E. coli BL21 (DE3), pET-28a
Description: Additional purified KIF2C (0.5 ng/μl), ATP (0.75 mM), and 7S9 (50 μM) were included in a typical 10 μL reaction, as indicated, loaded onto a p-Slide (Ibidi, 81506) and incubated at 37° C. for 30 min. Images were acquired using the Leica DMI6000 microscope with an HCX PL FL 20×/0.4 and Andor Neo sCMOS camera, which were all processed by MetaMorph software (Molecular Devices, LLC. San Jose, CA, USA).

4T1 cells = assay: In vivo tumor growth inhibition, 4T1 syngeneic model; parameters: species or system mouse; settings: 4T1 tumors, BALB/c mice
Description: The mice were housed at the National Health Research Institute (NHRI) Animal Center in accordance with the Institutional Animal Care and Use Committee procedures and guidelines. The 4T1-derived cells, including 4T1, 4T1 R4, and 4T1 R8, used for implantation were harvested during log phase growth and resuspended in phosphate-buffered saline. Each mouse was injected s.c. in the right flank with 5×10^5 cells. After tumor size reached 60-100 mm 3 (D1), mice were divided into groups and received treatment with vehicle or different compounds alone or in combinations. Tumor size, in mm 3, was measured twice per week and calculated from Tumor volume=(w 2×1)/2, where w=width and 1=length in mm of the tumor. The values of tumor size were expressed as mean±SEM.

4T1 R8 cells = assay: Cell viability assay, 4T1 R8 cells; assay type: cell-based, mouse; settings: with 400 nM paclitaxel, 72 hr
Description: MCF-7, MDA-MB-231, MDA-MB-468, Hs578T, 4T1, and HeLa cell lines stably expressing H2B-mCherry and eGFP-tubulin (kindly provided by Dr. Anthony A. Hyman, Max-Planck-Institute for Molecular Cell Biology and Genetics, Dresden, Germany) were cultured in high-glucose Dulbecco's Modified Eagle Medium (DMEM). SK-BR-3 cells were cultured in McCoy's Modified 5a Medium. Hs578T cells were cultured in high-glucose DMEM supplemented with an additional 0.01 mg/mL bovine insulin. […] All mentioned media were supplemented with 10% fetal bovine serum (Gibco) and 1% Penicillin/Streptomycin (Corning), and cells were incubated at 37° C. in a humidified atmosphere containing 5% CO2. HEK293 cells were cultured in HE300 medium (GMEP incorporated, Japan) and maintained in suspension culture with 125 rpm and 8% CO2.
as §1

T1 sequence (Q99661 216-598): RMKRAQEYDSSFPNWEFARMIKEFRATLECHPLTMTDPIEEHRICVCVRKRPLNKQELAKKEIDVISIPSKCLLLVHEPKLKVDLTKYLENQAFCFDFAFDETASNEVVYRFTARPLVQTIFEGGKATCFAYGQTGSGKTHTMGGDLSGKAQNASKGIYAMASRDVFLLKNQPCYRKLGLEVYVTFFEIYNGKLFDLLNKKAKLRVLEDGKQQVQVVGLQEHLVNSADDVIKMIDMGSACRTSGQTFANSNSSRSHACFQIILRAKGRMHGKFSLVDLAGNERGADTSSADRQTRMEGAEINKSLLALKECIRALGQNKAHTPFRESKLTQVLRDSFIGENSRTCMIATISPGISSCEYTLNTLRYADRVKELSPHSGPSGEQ

KIF2C-mediated microtubule depolymerization (in words) (KIF2C): completely blocked
SMILES: CCN1CCN(C(=O)COc2ccc(/C=c3\sc4n(c3=O)C(c3ccc(Cl)cc3)C(C(=O)OC(C)C)=C(C)N=4)cc2)CC1.O=C(O)/C=C\C(=O)O (stereo not drawn) [7S9 (133), isopropyl (Z)-5-(4-chlorophenyl)-2-(4-(2-(4-ethylpiperazin-1-yl)-2-oxoethoxy)benzylidene)-7-methyl-3-oxo-2,3-dihydro-5H-thiazolo[3,2-a]pyrimidine-6-carboxylate maleate]
IC50 [1]: 4.9 to 8.6 µM | mitotic defects, combined treatment (in words) (4T1 R4 cells): induced significant defects in mitosis | tumor growth inhibition (4T1 cells; 7S9 50 mg/kg intraperitoneally, 5on/2off two cycles): 20.3% | tumor growth inhibition, combination (4T1 cells; 7S9 50 mg/kg with paclitaxel 5 mg/kg): 62.6% | fold increase of cell sensitivity to 7S9 by paclitaxel (4T1 R8 cells): 8 fold
